Test results reported in ChEMBL document CHEMBL1149301, “Benzoyl ring halogenated classical 2-amino-6-methyl-3,4-dihydro-4-oxo-5-substituted thiobenzoyl-7H-pyrrolo[2,3-d]pyrimidine antifolates as inhibitors of thymidylate synthase and as antitumor agents” (J Med Chem, 2004).

Tests used:
Dihydrofolate reductase [1] = target: T1, Dihydrofolate reductase (Escherichia coli, UniProt P0ABQ4)
T1 sequence (P0ABQ4 whole entry): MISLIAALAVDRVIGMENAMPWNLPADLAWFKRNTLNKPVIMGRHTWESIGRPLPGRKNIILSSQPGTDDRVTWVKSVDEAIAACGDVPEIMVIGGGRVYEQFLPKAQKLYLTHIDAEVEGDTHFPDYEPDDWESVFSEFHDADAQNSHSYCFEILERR
Description: Inhibition of Escherichia coli DHFR

CCRF-CEM [2] = assay: Growth inhibition of human CCRF-CEM leukemia cells at 2400 nM relative to leucovorin; format: functional
R2 = assay: Growth inhibition of MTX-resistant human CCRF-CEM R2 cells; format: functional, cell-based
Thymidylate synthase [3] = target: Thymidylate synthase (Escherichia coli, UniProt C3SWJ7); assay: Inhibition of Escherichia coli thymidylate synthase
Sequence of Thymidylate synthase (Escherichia coli, UniProt C3SWJ7) (C3SWJ7 whole entry): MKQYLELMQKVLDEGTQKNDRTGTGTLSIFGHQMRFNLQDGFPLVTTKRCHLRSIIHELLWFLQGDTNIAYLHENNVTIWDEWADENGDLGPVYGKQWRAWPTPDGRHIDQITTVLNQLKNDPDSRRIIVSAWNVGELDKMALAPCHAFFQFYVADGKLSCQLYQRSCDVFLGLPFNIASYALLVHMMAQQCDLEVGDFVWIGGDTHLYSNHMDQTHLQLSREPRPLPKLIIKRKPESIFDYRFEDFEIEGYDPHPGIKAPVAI

[4] = Cytotoxicity against HCC2998 cells; format: cell-based, HCC 2998; conditions: human
[5] = Cytotoxicity against human EKVX cells; format: cell-based
SF-268 = assay: Cytotoxicity against SF268 cells; format: functional; conditions: Homo sapiens
Dihydrofolate reductase [6] = target: T2, Dihydrofolate reductase (Homo sapiens, UniProt P00374)
T2 sequence (P00374 whole entry): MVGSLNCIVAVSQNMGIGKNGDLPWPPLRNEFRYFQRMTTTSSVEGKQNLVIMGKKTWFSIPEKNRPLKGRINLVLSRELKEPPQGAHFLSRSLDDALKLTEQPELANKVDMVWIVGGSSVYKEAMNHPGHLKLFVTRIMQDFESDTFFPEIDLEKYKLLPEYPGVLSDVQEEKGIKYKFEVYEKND

Thymidylate synthase [7] = target: Thymidylate synthase (Homo sapiens, UniProt P04818)
Sequence of Thymidylate synthase (Homo sapiens, UniProt P04818) (P04818 whole entry): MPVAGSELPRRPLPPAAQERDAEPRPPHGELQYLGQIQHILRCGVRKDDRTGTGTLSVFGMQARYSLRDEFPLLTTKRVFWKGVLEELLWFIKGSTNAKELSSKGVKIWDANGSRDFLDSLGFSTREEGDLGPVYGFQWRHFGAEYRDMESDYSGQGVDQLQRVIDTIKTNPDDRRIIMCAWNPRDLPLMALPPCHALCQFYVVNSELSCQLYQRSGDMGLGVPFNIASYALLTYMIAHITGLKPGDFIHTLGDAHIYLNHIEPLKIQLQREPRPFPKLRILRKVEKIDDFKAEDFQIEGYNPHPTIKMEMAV
Description: Inhibition of human thymidylate synthase

CCRF-CEM [8] = assay: Growth inhibition of MTX-resistant human CCRF-CEM R30dm cells; format: functional, cell-based
[9] = Cytotoxicity against NCI/ADR-RES cells; format: cell-based; conditions: human
[10] = Cytotoxicity against BT549 cells; format: cell-based, BT-549; conditions: human
[11] = target: T3, Folylpolyglutamate synthase, mitochondrial (Homo sapiens) (UniProt Q05932); assay: Ratio of relative Vmax to Km of human recombinant FPGS
T3 sequence (whole entry): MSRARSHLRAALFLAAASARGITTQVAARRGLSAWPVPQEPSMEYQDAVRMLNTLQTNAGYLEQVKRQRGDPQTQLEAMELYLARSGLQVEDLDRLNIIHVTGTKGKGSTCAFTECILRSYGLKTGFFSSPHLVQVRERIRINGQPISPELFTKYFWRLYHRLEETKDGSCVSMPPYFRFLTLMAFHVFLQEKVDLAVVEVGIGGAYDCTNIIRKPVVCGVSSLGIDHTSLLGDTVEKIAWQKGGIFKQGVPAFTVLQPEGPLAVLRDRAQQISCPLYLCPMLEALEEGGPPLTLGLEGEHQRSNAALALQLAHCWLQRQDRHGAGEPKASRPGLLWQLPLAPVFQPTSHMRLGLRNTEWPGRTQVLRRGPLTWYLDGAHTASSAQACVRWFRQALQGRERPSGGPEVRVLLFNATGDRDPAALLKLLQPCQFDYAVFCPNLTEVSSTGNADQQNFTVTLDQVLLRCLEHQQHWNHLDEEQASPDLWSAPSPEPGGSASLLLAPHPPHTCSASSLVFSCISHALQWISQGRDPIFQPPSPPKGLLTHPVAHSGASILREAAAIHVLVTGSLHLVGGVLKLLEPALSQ

R1 = assay: Growth inhibition of MTX-resistant human CCRF-CEM R1 cells overexpressing DHFR
CCRF-CEM [12] = assay: Growth inhibition of human CCRF-CEM cells; format: functional, cell-based
CCRF-CEM [13] = assay: Protection against 5000 nM N-[4-[(2-amino-6-methyl-3,4-dihydro-4-oxo-7H-pyrrolo[2,3-d]pyrimidin-5-yl)thio]-2fluorobenzoyl]-L-glutamic acid-induced growth inhibition of human CCRF-CEM cells at 5 uM relative to control; format: functional; design: scale not given: the % may be the effect or the level left
CCRF-CEM [14] = assay: Protection against 2400 nM N-[4-[(2-amino-6-methyl-3,4-dihydro-4-oxo-7H-pyrrolo[2,3-d]pyrimidin-5-yl)thio]-2chlorobenzoyl]-L-glutamic acid-induced growth inhibition of human CCRF-CEM cells at 5 uM relative to control; format: functional; design: scale not given: the % may be the effect or the level left
CCRF-CEM [15] = assay: Growth inhibition of human CCRF-CEM cells by thymidine at 5 uM relative to control; design: scale not given: the % may be the effect or the level left
CCRF-CEM [16] = assay: Protection against 40 nM methotrexate-induced growth inhibition of human CCRF-CEM leukemia cells at 5 uM relative to control; format: functional; design: scale not given: the % may be the effect or the level left
CCRF-CEM [17] = assay: Protection against methotrexate-induced effect in human CCRF-CEM cells assessed as growth inhibition at 0.1 mM; format: functional; design: scale not given: the % may be the effect or the level left
CCRF-CEM [18] = assay: Protection against compound 4- or 5-induced effect in human CCRF-CEM cells assessed as growth inhibition at […]; design: scale not given: the % may be the effect or the level left
[19] = Cytotoxicity against human CCRF-CEM leukemia cells; format: cell-based
CCRF-CEM [20] = assay: Growth inhibition of human CCRF-CEM leukemia cells at 5000 nM relative to leucovorin; format: functional
[21] = substrate: Cc1[nH]c2nc(N)[nH]c(=O)c2c1Sc1ccc(C(=O)N[C@@H](CCC(=O)O)C(=O)O)c(F)c1; assay: (§1) Activity of human recombinant FPGS relative to AMT
[22] = substrate: Cc1[nH]c2nc(N)[nH]c(=O)c2c1Sc1ccc(C(=O)N[C@@H](CCC(=O)O)C(=O)O)c(Cl)c1; assay: as §1
[23] = substrate: Cc1[nH]c2nc(N)[nH]c(=O)c2c1Sc1ccc(C(=O)N[C@@H](CCC(=O)O)C(=O)O)c(F)c1; assay: (§2) Activity of human recombinant FPGS
[24] = substrate: Cc1[nH]c2nc(N)[nH]c(=O)c2c1Sc1ccc(C(=O)N[C@@H](CCC(=O)O)C(=O)O)c(Cl)c1; assay: as §2
[25] = substrate: Nc1nc(N)c2nc(CNc3ccc(C(=O)N[C@@H](CCC(=O)O)C(=O)O)cc3)cnc2n1; assay: as §2

Cc1[nH]c2nc(N)[nH]c(=O)c2c1Sc1ccc(C(=O)N[C@@H](CCC(=O)O)C(=O)O)c(Cl)c1
IC50 (Dihydrofolate reductase [1]): 40 µM
inhibition at 2.4 µM (CCRF-CEM [2]): 11%
EC50 (R2): 12 µM
IC50 (Thymidylate synthase [3]): 5.1 µM
GI50 [4]: 1.48 µM
GI50 [5]: 0.758 µM
GI50 (SF-268): 7.44 µM
IC50 (Dihydrofolate reductase [6]): 11 µM
IC50 (Thymidylate synthase [7]): 0.051 µM
EC50 (CCRF-CEM [8]): 1.2 µM
GI50 [9]: 8.54 µM
GI50 [10]: < 0.01 µM
Ratio [11]: 0
EC50 (R1): 1.9 µM
EC50 (CCRF-CEM [12]): 0.69 µM

Cc1cn([C@H]2C[C@H](O)[C@@H](CO)O2)c(=O)[nH]c1=O [DOXRIBTIMINE]
Activity (CCRF-CEM [13]): 96%
Activity (CCRF-CEM [14]): 92%
Activity (CCRF-CEM [15]): 40%
Activity (CCRF-CEM [16]): 10%

Cc1[nH]c2nc(N)[nH]c(=O)c2c1Sc1ccc(C(=O)N[C@@H](CCC(=O)O)C(=O)O)cc1
IC50 (Dihydrofolate reductase [1]): 21 µM
IC50 (Dihydrofolate reductase [6]): 2.1 µM

Nc1nc(N)c2nc(CNc3ccc(C(=O)N[C@@H](CCC(=O)O)C(=O)O)cc3)cnc2n1
Ratio [11]: 0.23

Nc1nc(=O)c2c([nH]1)NCC(CNc1ccc(C(=O)N[C@@H](CCC(=O)O)C(=O)O)cc1)N2C=O (some centres not stated) [LEUCOVORIN]
Activity (CCRF-CEM [17]): 6%
Activity (CCRF-CEM [18]): 90%

Cc1[nH]c2nc(N)[nH]c(=O)c2c1Sc1ccc(C(=O)N[C@@H](CCC(=O)O)C(=O)O)c(F)c1
IC50 (Dihydrofolate reductase [1]): 21 µM
EC50 (R2): 2.45 µM
IC50 (Thymidylate synthase [3]): 0.72 µM
GI50 [4]: < 0.01 µM
GI50 [5]: 6.83 µM
GI50 (SF-268): 0.347 µM
IC50 (Dihydrofolate reductase [6]): 2.1 µM
GI50 [19]: 0.712 µM
IC50 (Thymidylate synthase [7]): 0.054 µM
EC50 (CCRF-CEM [8]): 0.305 µM
GI50 [9]: 0.383 µM
relative growth at 5 µM (CCRF-CEM [20]): 10
GI50 [10]: 2.21 µM
Ratio [11]: 0
EC50 (R1): 0.505 µM
EC50 (CCRF-CEM [12]): 0.215 µM

CN(Cc1cnc2nc(N)nc(N)c2n1)c1ccc(C(=O)N[C@@H](CCC(=O)O)C(=O)O)cc1 [METHOTREXATE]
EC50 (R2): 2.1 µM
EC50 (R1): 0.68 µM

B1: Folylpolyglutamate synthase, mitochondrial (Homo sapiens), Q05932 (protein)
chain: T3 sequence (whole entry)
Vmax [21]: 0
Vmax [22]: 0
Km [23]: < 250 µM
Km [24]: < 250 µM
Vmax [25]: 1
